The values below come from patent publication US20210346328A1, “COMPOSITIONS AND METHODS FOR TREATING METABOLIC DISORDERS” (The Johns Hopkins University, priority 2018, published 2021).

The test system of one series is CREB signaling in VMH. Kind of series: CREB phosphorylation in hypothalamus (VMH) after injection. Type of series: in vivo, mouse. The method, then: FIG. 28. (A) Western blot analysis of HTR2C and p-CREB in hypothalamus tissue from 12-week-old mice after PGE2 or vehicle injection at different periods. […] DAPI stains nuclei blue. Scale bar, 50 μm.
The femurs were collected and fixed in 4% paraformaldehyde overnight and decalcified by using 10% EDTA (pH, 7.4) (Amresco, 0105) for 21 days. The samples were then dehydrated with 30% sucrose for 24 h and embedded in paraffin or optimal cutting temperature compound (Sakura Finetek). 4-μm-thick coronal-oriented sections of the femur were prepared for hematoxylin and eosin staining. The femurs were fixed for 4 h with 4% paraformaldehyde at 4° C. and then decalcified at 4° C. using 0.5M EDTA (pH, 7.4) for 24 h with constant shaking. The samples were dehydrated in 20% sucrose and 2% polyvinylpyrrolidone (PVP) solution for 24 h and embedded in 8% gelatin (Sigma-Aldrich, G1890) in the presence of 20% sucrose and 2% PVP. Forty-μm-thick coronal-oriented sections of the femurs were obtained.

The next series deals with DRG neurons. Kind of series: Calcium imaging of isolated DRG neurons. The conditions noted are these: DRG neurons pre-incubated with 10 μM PGE2 for 5 min, relative to vehicle-treated neurons.
Series [1] relates to EP4 in the sensory nerves. Kind of series: PGE2-induced bone formation, trichrome and calcein double labeling. Type of series: in vivo, mouse. The conditions noted are these: EP4Avil−/− mice; 3 mg per kg per day PGE2 for 3 consecutive days. The method, then: (§1) FIG. 9. […] DAPI stains nuclei blue. […] Calcein was injected 5 days and 1 day before sacrifice. Representative images of calcein double labeling of femoral trabecular bone with quantification of mineral apposition rate (MAR) and bone formation rate (BFR). Scale bar, 20 μm. […] (Student t-test, except j with ANOVA)
(§2) As EP4 expression is also known to express in osteoblasts, osteoblastic cell-specific knockout EP4 mice were generated by crossing […] mice with osteocalcin-cre (OC-cre) mice (FIG. 12A).
(§3) A double-labeling procedure was performed to measure dynamic bone formation. Briefly, 0.1% calcein (Sigma-Aldrich, C0875) was injected in phosphate-buffered saline at a concentration of 10mg per kg into the mice subcutaneously 7 days and 1 day before sacrifice. The double-labeling images of undecalcified bone slices were captured using a fluorescence microscope. Trabecular bone formation in four randomly selected visual fields was analyzed in the distal metaphyseal area of the femur.

The target in series [2] is EP4 in the sensory nerves (Mus musculus, UniProt P32240). The description is as above. Type of series: in vivo. The note with it: wild-type mice; 3 mg per kg per day PGE2 for 3 consecutive days. The method, then:
as §1, §2, §3

In series [3] the target is T1, 15-PGDH (Mus musculus, UniProt Q8VCC1).
T1 sequence (Q8VCC1 1-269): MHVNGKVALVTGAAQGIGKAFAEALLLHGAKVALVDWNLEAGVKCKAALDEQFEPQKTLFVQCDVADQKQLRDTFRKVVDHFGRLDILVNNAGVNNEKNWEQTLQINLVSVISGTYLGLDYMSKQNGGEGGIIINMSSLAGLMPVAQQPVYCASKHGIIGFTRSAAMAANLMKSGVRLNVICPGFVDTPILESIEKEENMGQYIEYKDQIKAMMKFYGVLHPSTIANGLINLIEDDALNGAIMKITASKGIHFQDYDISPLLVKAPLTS
Briefly: Liver regeneration after partial hepatectomy. The class given is in vivo. The note with it: TrkAAvil−/− mice treated with SW033291 relative to WT littermates. The source says: FIG. 32. (A) Double-immunofluorescence images of liver tissue sections from TrkA^wt and TrkAAvil^−/− mice with vehicle or SW033291 treatment using antibodies against and Ki67 (red) and CGRP (green). DAPI stains nuclei blue. Percentages of the Ki67+cells are shown in the right panel. Scale bar, 100 μm.(B) BrdU staining images of liver tissue sections from TrkA^wt and TrkAAvil^−/− mice with vehicle or SW033291 treatment. Scale bar, […]. Percentages of the BrdU+cells are shown in the right panel. […] (ANOVA).
To further investigate whether PGE2 induces regeneration by sensory nerves of tissues other than bone, experiments were conducted that performed partial hepatectomy in TrkAAvil^−/− mice and their WT littermates treated with SW033291 or vehicle.
Partial hepatectomy was used for the liver regeneration model. 10- to 12-week-old […] male mice were anesthetized, as described above. A partial (two-thirds) hepatectomy was performed by resecting the median and left lateral hepatic lobes^54. The remnant livers were harvested after mice sacrifice. SW033291 was dissolved in a vehicle of 10% ethanol, 5% Cremophor EL, and 85% dextrose 5% in water.

The target in series [4] is T1, 15-PGDH. Briefly: Bone regeneration after femoral bone marrow ablation. Type of series: in vivo. The source says:
FIG. 31. […] Scale bar: 1 mm. Selected areas for the measurements of bone volume (BV)/tissue volume (TV) were indicated with a yellow square. b Representative images of hematoxylin-eosin staining, double immunofluorescence analysis of CD31^+ Emcn^+ cells, and immunofluorescence analysis of Leptin receptor (LepR)^+ cells in the regeneration area. Scale bar, 100 μm. c Graphic illustration of this study. When bone density decreases by osteoclast bone resorption, PGE2 secretion by osteoblastic cells increases at bone remodeling sites. PGE2 activates EP4 receptor at sensory nerve to tune down sympathetic tones for osteoblast differentiation at the bone remodeling microenvironment. The sensory nerve controlling process is likely a temporal-spatial precision action. […] (ANOVA)
PGE2 has been reported recently to potentiate regeneration of multiple tissues (see, Zhang, Y. et al. Science 348, aaa2340, doi:10.1126/science.aaa2340 (2015)). To investigate whether PGE2 induces tissue regeneration through sensory nerves, experiments were conducted that assessed whether PGE2 induces bone regeneration. […] However, the regeneration of trabecular bone by SW033291 was obstructed in EP4Avil^−/− mice (FIG. 31A, B). […] Thus, PGE2 stimulates bone regeneration through sensory nerves.
The femurs were harvested from mice, and the soft tissue around the bone was removed, followed by fixation overnight using 4% paraformaldehyde. μCT analyses were performed by using a high-resolution μCT scanner (SkyScan, 1174). The voltage of the scanning procedure was 65 kv with a 153-μA current. The resolution was set to 8.7 μm per pixel. Reconstruction software (NRecon, v1.6, SkyScan), data analysis software (CTAn, v1.9, SkyScan), and 3D model visualization software (CTVol, v2.0, SkyScan) were used to analyze the diaphyseal cortical bone and the metaphyseal trabecular bone parameters of the femurs. Experiments were conducted that created cross-sectional images of the femur to perform 2D analyses of the cortical bone and 3D analyses of the trabecular bone. The region of interest (ROI) of the trabecular bone was drawn beginning from 5% of the femur length proximal to the distal metaphyseal growth plate and extending proximally for another 5% of the total femur length. The trabecular bone volume fraction (BV/TV), trabecular thickness (Tb. Th), trabecular number (Tb. N), and trabecular separation (Tb. Sp) were collected from the 3D analyses data and used to represent the trabecular bone parameters. The cortical bone ROI was drawn beginning from 20% of femur length proximal to distal metaphyseal growth plate and extending proximally to another 10% of the total femur length. […]

Series [5] concerns sensory nerves of iDTRAvil mice. The note with it: mouse, in vivo.

Sequence of EP4 in the sensory nerves (Mus musculus, UniProt P32240) (P32240 whole entry): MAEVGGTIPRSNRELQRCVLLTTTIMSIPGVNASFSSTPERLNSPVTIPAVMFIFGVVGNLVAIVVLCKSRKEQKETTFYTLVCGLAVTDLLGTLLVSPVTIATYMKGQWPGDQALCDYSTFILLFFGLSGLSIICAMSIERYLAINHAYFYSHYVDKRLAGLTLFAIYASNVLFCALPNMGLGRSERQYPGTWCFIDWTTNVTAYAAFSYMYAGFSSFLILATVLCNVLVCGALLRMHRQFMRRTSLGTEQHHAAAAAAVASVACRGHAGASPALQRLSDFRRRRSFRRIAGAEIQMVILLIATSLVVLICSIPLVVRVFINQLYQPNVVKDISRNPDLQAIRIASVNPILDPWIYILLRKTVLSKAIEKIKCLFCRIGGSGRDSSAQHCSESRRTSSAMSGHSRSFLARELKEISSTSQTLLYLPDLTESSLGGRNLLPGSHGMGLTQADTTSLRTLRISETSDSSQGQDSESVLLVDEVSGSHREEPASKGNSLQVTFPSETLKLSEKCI

Take `CCCCC[C@H](O)/C=C/[C@H]1[C@H](O)CC(=O)[C@@H]1C/C=C\CCCC(=O)O` [PGE2, prostaglandin E2]: in the series on CREB signaling in VMH (12-week-old mice after PGE2 injection), the “phosphorylation of CREB in hypothalamus, Western blot time course” value was “increased gradually”. In the series with CREB signaling in VMH (EP4Avil−/− mice, 3 mg per kg PGE2, 6 h), the “PGE2-induced CREB phosphorylation in VMH, immunostaining” value is “abolished”. Besides, in the series with CREB signaling in VMH (WT (EP4wt) mice, 3 mg per kg PGE2, 6 h after injection), the “CREB phosphorylation in VMH, immunostaining” value is recorded as “increased significantly”. Further, the “time of peak phosphorylation of CREB in hypothalamus” value in the series on CREB signaling in VMH (Western blot, after PGE2 injection) is 6 h. The “activated (illuminated) DRG neurons, calcium imaging” value with DRG neurons is recorded as “more illuminated DRG neurons”. Also, the “bone formation (trichrome, calcein double labeling: MAR, BFR)” value in series [1] is listed as “abolished”; in series [2] it was “significant bone formation”.
Take `O=C(O)CCC/C=C\C[C@H]1C(=O)C[C@@H](O)[C@@H]1/C=C/[C@@H](O)CCc1ccccc1` [EP1/3 agonist]: in the series with CREB signaling in VMH (C57BL/6 mice, agonist 200 ug per kg, 6 hours, relative to vehicle-treated mice), the “phosphorylation of CREB (pCREB level) in VMH” value was “did not increase”.
Consider `CCCC[S+]([O-])c1sc2nc(-c3cccs3)cc(-c3ccccc3)c2c1N` (stereo not shown) [SW033291], for which the “liver regeneration rate (BrdU and Ki67 staining)” value on 15-PGDH [3] is recorded as “decreased significantly”. For the same molecule, the “type H vessels in the regeneration area” value on 15-PGDH [4] (EP4Avil−/− mice with or without injection of SW033291) is reported as “almost undetectable”. In addition, on 15-PGDH [4] (EP4Avil−/− mice, 10 mg per kg per day SW033291), the “regeneration of trabecular bone” value is listed as “obstructed”. The “type H vessel (CD31hi Endomucinhi) growth in the regeneration area” value at 15-PGDH [4] (EP4wt mice treated with SW033291) is recorded as “significantly increased”. The “trabecular bone regeneration (μCT, HE staining)” value at 15-PGDH [4] (EP4wt mice, 10 mg per kg per day SW033291, relative to vehicle-treated controls) is given as “boosted trabecular bone regeneration significantly”.
With diphtheria toxin [DTX], in series [5], the “Sensory denervation (CGRP+ sensory nerves in femur)” value is listed as “effectively induced”; the amount of osteoid result was “significantly decreased”; the “bone formation (calcein double-labeling)” value was “reduced”; the “bone loss (μCT, femur)” value is “Significant bone loss”. For the same molecule, in series [5], the “bone mass in the vertebrae” value was “decreased”; the “mineral apposition rate (calcein double-labeling)” value is reported as “reduced”; the “motor neural activity (pole tests and grip strength tests)” value was “No motor neural activity was influenced”; the number of osteoblasts result is “significantly decreased”. Further, in series [5], the number of osteoclasts result was “unchanged”, the “sensory innervations in the vertebrae” value was “decreased”, the “serum CTX level” value is “unchanged” and the serum osteocalcin level result is “significantly decreased”.
